Data set [1] relates to male diabetic db/db mice. In words: Diabetic nephropathy study in db/db mice (serum/urine parameters, renal histology). The data set is classed as in vivo. The note with it: for glomerular mesangial matrix expansion (histology) / tubulointerstitial fibrosis (histology): compared with diabetic vehicle; for effects on fasted or post-prandial glucose levels: db/db mice, 12 weeks treatment, linagliptin 3 mg/kg/day, enalapril 20 mg/kg/day. Here is the method: (§1) Diabetic nephropathy is the main cause of end-stage renal disease. […] Heterozygous db/+ mice treated with vehicle were used as controls (n=8). Levels of glucose, triglycerides, insulin, cystatin C and creatinine were analysed in serum and urine samples at baseline and monthly thereafter. Body weight, urinary albumin excretion and OGTT were monitored periodically.
(§2) Renal histology (glomerulosclerosis, tubulointerstitial fibrosis) and expression of the sialoglycoprotein podocalyxin (a marker of podocyte integrity in the glomeruli, marker for glomerular damage), glucagon-like peptide 1 receptor (GLP-1R), alpha-smooth muscle actin and type I collagen were evaluated at the end of the study.

The test system of data set [2] is podocalyxin. In words: Podocalyxin immunohistochemistry of kidney sections (podocyte integrity) in db/db mice. It counts as in vivo. The note with it: 12 weeks, semi-quantitative score 0-3, p<0.05 vs diabetic mice. Here is the method: The expression of podocalyxin is analysed by immunohistochemistry using a podocalyxin specific antibody. Kidney sections from male diabetic db/db mice (10 weeks old at start and treated for 3 months) in the following groups are analysed:
All of the evaluations of the glomerular staining intensities are done semi-quantitatively by two different experts of kidney pathology blinded for the slides.
The predefined scoring gradient is 0, 1, 2, and 3.0 means no expression, whereas 3 is given when expression is highest. Group means are compared with a non-parametric test. P values less than 0.05 are considered significant.
as §1, §2

In data set [3] the test system is glucagon-like peptide 1 receptor (GLP-1R). As to the kind of experiment: GLP-1R immunohistochemical staining of kidney sections in db/db mice. It counts as in vivo. The note with it: P<0.05 vs vehicle-treated db/db mice. Here is the method:
as §1, §2

Data set [4] in a line: Pooled analysis of four 24-week placebo-controlled trials: albuminuria in T2D patients with early diabetic nephropathy on stable ACE/ARB (set 1). The data set is classed as in vivo, human. The note with it: 5 mg qd, 24 weeks. From the text: Despite optimal therapy, people with type 2 diabetes (T2D) remain at high risk for kidney damage, manifest as abuminuria, and many develop progressive renal failure. Further, despite optimal therapy with inhibitors of the renin-angiotensin-aldosterone system (RAAS), patients with type 2 diabetes mellitus (T2DM) remain at an increased risk of progressive renal failure and cardiovascular disease, for which abuminuria has emerged as a predictive biomarker. […] Participants were included in this analysis if they had: i) 30≦UACR≦3000 mg/g creatinine; ii) stable treatment with ACE/ARBs ≧4 weeks prior and during the trial; and iii) eGFR >30 ml/min/1.73 m^2. The endpoint was the percentage change in geometric mean UACR. […] After 24 weeks, placebo-corrected changes in A1C and FPG were −0.71% and −26 mg/dl, respectively (both p<0.0001). […] This protective effect may be independent of race.
(§3) The endpoint in both sets was the percentage change in geometric mean UACR after 24 weeks.

Data set [5] in a line: Pooled analysis of seven placebo-controlled trials: albuminuria in elderly T2D patients with diabetic nephropathy (set 2). It counts as in vivo, human. The note with it: 5 mg q.d., 24 weeks, set 2, aged ≧65 years.
Description: as §3

Data set [6] in a line: Meta-analysis of renal safety/outcomes in 13 phase 3 placebo-controlled trials, 5466 T2D patients.
Description: The aim of this study was to evaluate renal safety/outcomes with linagliptin in phase 3, randomized, double-blind, placebo-controlled trials (≧12 wks).
For data set [7] the following is noted: for feτ, s: steady state (Day 12), gMean.
Setting [8] is: linagliptin compared with enalapril, p<0.05.

Structures are written as SMILES. Read-outs that look alike come from different tables or passages of the source.

Consider `CC#CCn1c(N2CCC[C@@H](N)C2)nc2c1c(=O)n(Cc1nc(C)c3ccccc3n1)c(=O)n2C` [linagliptin], for which the “glomerular mesangial matrix expansion (histology)” value in data set [1] (p<0.05) was “reduced almost to control levels”. For the same molecule, the “tubulointerstitial fibrosis (histology)” value in data set [1] (p<0.05) was “reduced almost to control levels”. For the same molecule, the “effects on fasted or post-prandial glucose levels” value in data set [1] is on record as “limited effects”. For the same molecule, in data set [1] (setting [8]), the tubulointerstitial fibrosis result is “significantly decreased”. In addition, the “urinary albumin excretion rates” value in data set [1] (setting [8]) is given as “significantly decreased”. Besides, in data set [2], the “podocalyxin expression (glomerular staining score)” value is reported as 2.3±0.2. Moreover, in data set [3], the “expression of GLP-1R in the glomeruli” value is listed as 1.90±0.04. Besides, the “UACR between group difference vs placebo” value in data set [4] (set 1) is reported as −29%. Besides, in data set [4] (set 1, on stable ACE/ARB), the “lowering of adjusted UACR (percentage change in geometric mean)” value is recorded as 33%. Besides, the “UACR reduction versus placebo (trend)” value in data set [5] is −25%. The “patients with composite renal endpoint events” value in data set [6] (linagliptin 5 mg qd, n=3505) turned out to be 12.8%. Also, the “patients with composite renal endpoint events (number)” value in data set [6] (linagliptin 5 mg qd, n=3505) came out at 448. The “HR for the composite endpoint vs placebo” value is reported as 0.77 in data set [6] (patients <65 yrs) and 1.04 in data set [6] (patients >65 yrs). For the same molecule, the “feτ, s” value in data set [7] (1 mg once daily oral) is given as 3.34%; in data set [7] (2.5 mg once daily oral) it was 3.06%; in data set [7] (5 mg once daily oral), 6.27%; in data set [7] (10 mg once daily oral), 3.22%. Also, the route of excretion entry in data set [7] (human, in vivo) was “primarily excreted unchanged via the bile”. In addition, the “excreted via the kidney” value in data set [7] (therapeutic oral dose levels, of the administered oral dose) is listed as less than 7%.
With `CCOC(=O)[C@H](CCc1ccccc1)N[C@@H](C)C(=O)N1CCC[C@H]1C(=O)O` [enalapril, reference compound], in data set [1] (p<0.05), the “glomerular mesangial matrix expansion (histology)” value is “reduced almost to control levels” and the “tubulointerstitial fibrosis (histology)” value is recorded as “reduced almost to control levels”. In addition, in data set [1], the “effects on fasted or post-prandial glucose levels” value was “limited effects”. In data set [2], the “podocalyxin expression (glomerular staining score)” value worked out at 2.4±0.2.
